Source: article PMC7366380, “Discovery of a Potent and Selective Covalent Inhibitor and Activity-Based Probe for the Deubiquitylating Enzyme UCHL1, with Antifibrotic Activity” (Journal of the American Chemical Society, 2020)
Where “and” joins values, the source holds several entries; their conditions need not be identical. Identical values can stand only once.

What was measured:
Assay in all cases: In-cell proteome-wide competitive ABPP, HEK293: other DUBs and proteins
[1] = biological target: T1, DUBs and other proteins in HEK293 cells (Homo sapiens, UniProt Q9Y5K5); conditions: replicates A-C; for Log2 reporter intensity values: UCHL5: competition with ABP 2, DMSO substract (FC); for Log2 reporter intensity values: UCHL5, DMSO subtracted
T1 sequence (Q9Y5K5 1-329): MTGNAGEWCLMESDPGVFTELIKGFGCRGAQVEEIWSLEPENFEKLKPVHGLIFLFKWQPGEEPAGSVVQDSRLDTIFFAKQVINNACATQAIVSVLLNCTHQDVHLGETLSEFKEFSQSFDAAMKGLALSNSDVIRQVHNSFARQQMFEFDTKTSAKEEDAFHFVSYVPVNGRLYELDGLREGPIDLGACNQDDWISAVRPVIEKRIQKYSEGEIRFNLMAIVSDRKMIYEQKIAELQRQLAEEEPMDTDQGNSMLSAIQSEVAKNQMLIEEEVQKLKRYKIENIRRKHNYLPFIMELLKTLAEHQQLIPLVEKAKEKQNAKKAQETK

[2] = biological target: DUBs and other proteins in HEK293 cells (Homo sapiens, UniProt O00487); conditions: replicates A-C; for Log2 reporter intensity values: PSMD14: competition with ABP 2, DMSO substract (FC); for Log2 reporter intensity values: PSMD14, DMSO subtracted
[3] = biological target: DUBs and other proteins in HEK293 cells (Homo sapiens, UniProt Q93008); conditions: replicates A-C; for Log2 reporter intensity values: USP9X;USP9Y: competition with ABP 2, DMSO substract (FC); for Log2 reporter intensity values: USP9X;USP9Y, DMSO subtracted
[4] = biological target: DUBs and other proteins in HEK293 cells (Homo sapiens, UniProt Q93009); conditions: replicates A-C; for Log2 reporter intensity values: USP7: competition with ABP 2, DMSO substract (FC); for Log2 reporter intensity values: USP7, DMSO subtracted
[5] = biological target: T2, DUBs and other proteins in HEK293 cells (Homo sapiens, UniProt Q96K76); conditions: replicates A-C; for Log2 reporter intensity values: USP47: competition with ABP 2, DMSO substract (FC); for Log2 reporter intensity values: USP47, DMSO subtracted
T2 sequence (Q96K76 1-1375): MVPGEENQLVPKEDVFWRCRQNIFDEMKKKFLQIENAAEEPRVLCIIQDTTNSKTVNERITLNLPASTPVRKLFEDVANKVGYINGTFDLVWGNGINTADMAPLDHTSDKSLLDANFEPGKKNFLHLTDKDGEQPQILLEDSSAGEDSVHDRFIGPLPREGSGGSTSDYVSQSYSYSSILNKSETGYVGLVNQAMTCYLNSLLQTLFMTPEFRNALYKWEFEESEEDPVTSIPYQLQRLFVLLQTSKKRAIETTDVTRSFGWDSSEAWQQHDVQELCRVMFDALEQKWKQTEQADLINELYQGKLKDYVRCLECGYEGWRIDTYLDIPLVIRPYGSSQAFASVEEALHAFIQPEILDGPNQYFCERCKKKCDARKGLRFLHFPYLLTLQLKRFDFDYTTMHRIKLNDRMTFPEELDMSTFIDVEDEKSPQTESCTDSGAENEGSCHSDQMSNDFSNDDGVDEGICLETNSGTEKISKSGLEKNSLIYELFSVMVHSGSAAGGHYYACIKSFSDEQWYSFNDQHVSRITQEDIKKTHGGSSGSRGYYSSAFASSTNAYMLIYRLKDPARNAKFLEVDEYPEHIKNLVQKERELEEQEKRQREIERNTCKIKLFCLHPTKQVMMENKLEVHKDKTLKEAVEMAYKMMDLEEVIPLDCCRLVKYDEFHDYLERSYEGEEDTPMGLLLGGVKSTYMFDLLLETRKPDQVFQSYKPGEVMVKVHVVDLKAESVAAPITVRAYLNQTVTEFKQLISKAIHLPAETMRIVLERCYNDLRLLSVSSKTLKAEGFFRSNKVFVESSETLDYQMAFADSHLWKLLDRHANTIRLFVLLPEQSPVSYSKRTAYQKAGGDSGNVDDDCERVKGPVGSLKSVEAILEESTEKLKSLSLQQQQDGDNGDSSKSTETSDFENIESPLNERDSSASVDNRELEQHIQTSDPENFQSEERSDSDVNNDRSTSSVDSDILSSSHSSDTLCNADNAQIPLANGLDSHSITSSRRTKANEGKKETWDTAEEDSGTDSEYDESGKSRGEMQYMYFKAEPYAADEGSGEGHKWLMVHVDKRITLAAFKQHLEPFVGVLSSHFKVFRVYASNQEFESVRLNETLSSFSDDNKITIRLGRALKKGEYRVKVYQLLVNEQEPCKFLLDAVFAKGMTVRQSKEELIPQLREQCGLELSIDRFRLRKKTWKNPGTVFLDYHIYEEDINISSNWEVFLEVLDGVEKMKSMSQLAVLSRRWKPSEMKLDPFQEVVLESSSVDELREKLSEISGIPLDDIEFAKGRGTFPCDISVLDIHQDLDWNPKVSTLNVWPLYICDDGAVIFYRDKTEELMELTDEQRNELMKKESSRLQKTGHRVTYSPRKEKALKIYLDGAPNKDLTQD

[6] = biological target: DUBs and other proteins in HEK293 cells (Homo sapiens, UniProt Q9UPU5); conditions: replicates A-C; for Log2 reporter intensity values: USP24: competition with ABP 2, DMSO substract (FC); for Log2 reporter intensity values: USP24, DMSO subtracted
[7] = biological target: DUBs and other proteins in HEK293 cells (Homo sapiens, UniProt Q96BN8); conditions: replicates A-C; for Log2 reporter intensity values: OTULIN: competition with ABP 2, DMSO substract (FC); for Log2 reporter intensity values: OTULIN, DMSO subtracted
Chain of DUBs and other proteins in HEK293 cells (Homo sapiens, UniProt Q96BN8) (Q96BN8 whole entry): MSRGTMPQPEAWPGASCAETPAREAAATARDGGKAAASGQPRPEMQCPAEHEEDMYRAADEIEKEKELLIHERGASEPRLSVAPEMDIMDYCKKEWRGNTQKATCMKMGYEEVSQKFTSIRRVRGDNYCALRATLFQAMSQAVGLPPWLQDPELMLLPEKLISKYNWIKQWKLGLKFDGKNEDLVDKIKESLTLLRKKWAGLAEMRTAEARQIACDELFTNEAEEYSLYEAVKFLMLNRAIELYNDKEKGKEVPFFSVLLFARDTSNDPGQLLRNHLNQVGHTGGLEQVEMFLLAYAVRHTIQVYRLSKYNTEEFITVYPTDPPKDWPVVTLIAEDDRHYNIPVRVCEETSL

Chain of DUBs and other proteins in HEK293 cells (Homo sapiens, UniProt Q93009) (Q93009 whole entry): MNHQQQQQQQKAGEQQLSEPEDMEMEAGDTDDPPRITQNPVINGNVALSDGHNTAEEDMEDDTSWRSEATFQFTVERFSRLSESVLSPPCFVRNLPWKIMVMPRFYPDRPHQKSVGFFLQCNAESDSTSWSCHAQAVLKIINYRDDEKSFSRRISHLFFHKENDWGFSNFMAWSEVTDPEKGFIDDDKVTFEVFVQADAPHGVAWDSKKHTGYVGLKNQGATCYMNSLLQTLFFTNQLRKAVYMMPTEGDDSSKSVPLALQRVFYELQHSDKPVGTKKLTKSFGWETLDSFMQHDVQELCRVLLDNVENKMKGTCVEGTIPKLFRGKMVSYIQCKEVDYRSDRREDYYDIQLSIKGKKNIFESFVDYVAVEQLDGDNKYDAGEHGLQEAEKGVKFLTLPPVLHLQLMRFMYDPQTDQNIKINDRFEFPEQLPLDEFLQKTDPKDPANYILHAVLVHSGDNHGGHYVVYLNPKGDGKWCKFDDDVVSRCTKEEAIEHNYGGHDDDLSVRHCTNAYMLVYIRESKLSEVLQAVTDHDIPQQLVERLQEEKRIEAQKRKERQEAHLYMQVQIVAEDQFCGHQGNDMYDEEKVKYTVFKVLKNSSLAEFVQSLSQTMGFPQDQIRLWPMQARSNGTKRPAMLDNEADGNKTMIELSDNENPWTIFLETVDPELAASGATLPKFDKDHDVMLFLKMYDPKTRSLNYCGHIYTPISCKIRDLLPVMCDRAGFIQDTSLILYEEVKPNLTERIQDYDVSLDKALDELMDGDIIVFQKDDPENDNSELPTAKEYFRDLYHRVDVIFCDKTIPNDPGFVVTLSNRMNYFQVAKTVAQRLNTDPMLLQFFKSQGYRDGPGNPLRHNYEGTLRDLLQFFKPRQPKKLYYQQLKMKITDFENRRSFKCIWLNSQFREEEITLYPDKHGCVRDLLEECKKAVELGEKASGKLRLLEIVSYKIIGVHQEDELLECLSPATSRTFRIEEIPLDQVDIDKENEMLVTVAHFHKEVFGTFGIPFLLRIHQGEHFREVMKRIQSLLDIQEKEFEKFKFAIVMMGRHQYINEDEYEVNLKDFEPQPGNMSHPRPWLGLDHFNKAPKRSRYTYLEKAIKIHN
Chain of DUBs and other proteins in HEK293 cells (Homo sapiens, UniProt Q93008) (Q93008 whole entry): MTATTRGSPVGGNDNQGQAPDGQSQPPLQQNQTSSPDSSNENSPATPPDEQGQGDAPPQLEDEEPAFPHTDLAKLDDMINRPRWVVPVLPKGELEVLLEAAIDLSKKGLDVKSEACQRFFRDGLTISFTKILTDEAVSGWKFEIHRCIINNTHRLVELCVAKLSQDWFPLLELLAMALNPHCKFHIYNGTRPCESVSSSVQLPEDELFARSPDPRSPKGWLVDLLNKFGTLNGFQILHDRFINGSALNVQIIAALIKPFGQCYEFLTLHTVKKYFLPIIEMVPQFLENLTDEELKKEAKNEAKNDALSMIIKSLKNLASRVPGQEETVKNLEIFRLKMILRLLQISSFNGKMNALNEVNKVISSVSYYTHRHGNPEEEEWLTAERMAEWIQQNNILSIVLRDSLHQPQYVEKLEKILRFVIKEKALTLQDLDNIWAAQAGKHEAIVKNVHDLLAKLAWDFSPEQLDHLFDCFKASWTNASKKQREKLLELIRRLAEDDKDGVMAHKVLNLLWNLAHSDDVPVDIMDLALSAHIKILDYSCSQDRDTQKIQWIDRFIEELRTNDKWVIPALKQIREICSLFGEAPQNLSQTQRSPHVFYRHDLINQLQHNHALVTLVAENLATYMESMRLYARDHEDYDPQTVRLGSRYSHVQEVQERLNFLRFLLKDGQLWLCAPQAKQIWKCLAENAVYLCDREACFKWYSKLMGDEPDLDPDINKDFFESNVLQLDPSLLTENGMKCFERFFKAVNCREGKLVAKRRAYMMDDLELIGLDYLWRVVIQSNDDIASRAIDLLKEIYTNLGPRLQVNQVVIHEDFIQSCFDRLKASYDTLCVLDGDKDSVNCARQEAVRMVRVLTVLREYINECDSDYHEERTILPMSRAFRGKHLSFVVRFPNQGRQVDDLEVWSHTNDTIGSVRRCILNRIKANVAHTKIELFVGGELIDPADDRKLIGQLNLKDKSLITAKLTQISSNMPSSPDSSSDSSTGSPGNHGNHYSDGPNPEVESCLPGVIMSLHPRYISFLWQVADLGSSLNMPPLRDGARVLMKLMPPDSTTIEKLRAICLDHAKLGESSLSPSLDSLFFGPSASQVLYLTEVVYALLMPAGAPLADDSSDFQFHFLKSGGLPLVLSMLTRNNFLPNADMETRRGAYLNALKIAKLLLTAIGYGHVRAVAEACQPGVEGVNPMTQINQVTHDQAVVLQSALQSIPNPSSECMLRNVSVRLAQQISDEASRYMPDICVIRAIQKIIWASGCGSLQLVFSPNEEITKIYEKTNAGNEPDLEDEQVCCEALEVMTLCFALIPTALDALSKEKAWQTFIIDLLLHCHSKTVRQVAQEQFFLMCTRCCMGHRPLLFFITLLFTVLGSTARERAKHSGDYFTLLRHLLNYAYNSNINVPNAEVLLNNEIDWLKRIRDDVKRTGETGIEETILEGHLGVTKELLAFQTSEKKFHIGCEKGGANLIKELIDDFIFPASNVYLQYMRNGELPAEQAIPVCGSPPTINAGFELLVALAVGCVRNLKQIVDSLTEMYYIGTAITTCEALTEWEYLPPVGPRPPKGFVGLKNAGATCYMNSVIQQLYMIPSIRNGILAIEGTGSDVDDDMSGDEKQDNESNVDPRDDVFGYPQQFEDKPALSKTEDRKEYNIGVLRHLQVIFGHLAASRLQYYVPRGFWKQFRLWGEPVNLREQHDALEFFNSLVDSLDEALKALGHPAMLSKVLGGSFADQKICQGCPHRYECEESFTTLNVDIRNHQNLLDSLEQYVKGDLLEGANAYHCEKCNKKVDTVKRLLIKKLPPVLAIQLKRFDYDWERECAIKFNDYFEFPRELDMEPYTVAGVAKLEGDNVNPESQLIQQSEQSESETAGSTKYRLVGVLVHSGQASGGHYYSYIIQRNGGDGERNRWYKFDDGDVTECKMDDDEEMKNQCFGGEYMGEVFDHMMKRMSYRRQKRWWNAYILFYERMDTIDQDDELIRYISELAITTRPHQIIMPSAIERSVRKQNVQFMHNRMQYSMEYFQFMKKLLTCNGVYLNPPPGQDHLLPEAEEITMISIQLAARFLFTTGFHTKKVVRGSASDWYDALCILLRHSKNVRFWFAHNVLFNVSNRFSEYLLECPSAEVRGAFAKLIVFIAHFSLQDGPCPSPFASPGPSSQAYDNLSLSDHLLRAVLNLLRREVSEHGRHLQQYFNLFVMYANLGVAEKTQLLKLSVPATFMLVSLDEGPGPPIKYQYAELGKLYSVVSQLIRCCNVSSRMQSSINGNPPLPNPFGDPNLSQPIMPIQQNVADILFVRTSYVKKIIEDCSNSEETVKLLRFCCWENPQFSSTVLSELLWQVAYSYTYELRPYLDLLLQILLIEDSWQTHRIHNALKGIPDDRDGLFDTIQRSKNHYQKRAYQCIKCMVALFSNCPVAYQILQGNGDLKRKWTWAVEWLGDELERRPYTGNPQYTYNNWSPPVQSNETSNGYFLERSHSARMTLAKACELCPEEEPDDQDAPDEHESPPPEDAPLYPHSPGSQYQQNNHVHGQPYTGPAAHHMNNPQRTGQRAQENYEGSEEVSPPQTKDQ
Chain of DUBs and other proteins in HEK293 cells (Homo sapiens, UniProt O00487) (O00487 whole entry): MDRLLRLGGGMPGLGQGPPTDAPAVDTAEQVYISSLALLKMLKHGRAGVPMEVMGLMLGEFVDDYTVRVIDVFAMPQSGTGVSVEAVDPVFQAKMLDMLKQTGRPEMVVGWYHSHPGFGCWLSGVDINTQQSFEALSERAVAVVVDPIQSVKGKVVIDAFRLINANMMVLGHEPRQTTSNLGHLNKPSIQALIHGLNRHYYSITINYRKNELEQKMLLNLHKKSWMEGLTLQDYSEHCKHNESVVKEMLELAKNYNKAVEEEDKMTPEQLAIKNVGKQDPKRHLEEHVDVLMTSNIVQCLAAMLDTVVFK

- Log2 reporter intensity values: UCHL5 ([1]; 3 at 1 μM): 1.151 and 1.125 and 1.14
- Log2 reporter intensity values: UCHL5 ([1]; 3 at 4 μM): 0.8761 and 0.9259 and 0.9496
- Log2 reporter intensity values ([1]; 3_1 μM): 0.1503 and 0.124 and 0.1395
- Log2 reporter intensity values ([1]; 3_4 μM): -0.1246 and -0.07482 and -0.05103
- Log2 reporter intensity values ([1]; 3 at 1 μM): 0.2029 and 0.1696 and 0.1893
- Log2 reporter intensity values ([1]; 3 at 4 μM): -0.1908 and -0.1111 and -0.07454
- Log2 reporter intensity values: PSMD14 ([2]; 3 at 1 μM): 1.063 and 1.033 and 1.055
- Log2 reporter intensity values: PSMD14 ([2]; 3 at 4 μM): 1.048 and 1.127 and 1.122
- Log2 reporter intensity values ([2]; 3_1 μM): 0.06036 and 0.03045 and 0.0523
- Log2 reporter intensity values ([2]; 3_4 μM): 0.04582 and 0.1244 and 0.1197
- Log2 reporter intensity values ([2]; 3 at 1 μM): 0.08818 and 0.04699 and 0.07719
- Log2 reporter intensity values ([2]; 3 at 4 μM): 0.06829 and 0.1725 and 0.1665
- Log2 reporter intensity values: USP9X;USP9Y ([3]; 3 at 1 μM): 1.02 and 0.9178 and 0.9768
- Log2 reporter intensity values: USP9X;USP9Y ([3]; 3 at 4 μM): 0.9914 and 0.9828 and 0.9945
- Log2 reporter intensity values ([3]; 3_1 μM): 0.02022 and -0.08228 and -0.02322
- Log2 reporter intensity values ([3]; 3_4 μM): -0.008621 and -0.01719 and -0.00552
- Log2 reporter intensity values ([3]; 3 at 1 μM): 0.02892 and -0.1238 and -0.03385
- Log2 reporter intensity values ([3]; 3 at 4 μM): -0.01245 and -0.02497 and -0.007941
- Log2 reporter intensity values: USP7 ([4]; 3 at 1 μM): 1.005 and 1.034 and 1.047
- Log2 reporter intensity values: USP7 ([4]; 3 at 4 μM): 0.9485 and 1.006 and 0.9977
- Log2 reporter intensity values ([4]; 3_1 μM): 0.004952 and 0.03394 and 0.04709
- Log2 reporter intensity values ([4]; 3_4 μM): -0.05181 and 0.006115 and -0.002591
- Log2 reporter intensity values ([4]; 3 at 1 μM): 0.007531 and 0.04854 and 0.06677
- Log2 reporter intensity values ([4]; 3 at 4 μM): -0.07633 and 0.0092 and -0.003335
- Log2 reporter intensity values: USP47 ([5]; 3 at 1 μM): 1.001 and 0.9758 and 1.097
- Log2 reporter intensity values: USP47 ([5]; 3 at 4 μM): 0.9921 and 1.112 and 1.049
- Log2 reporter intensity values ([5]; 3_1 μM): 0.0008917 and -0.02426 and 0.09736
- Log2 reporter intensity values ([5]; 3_4 μM): -0.008057 and 0.1123 and 0.04861
- Log2 reporter intensity values ([5]; 3 at 1 μM): 0.001442 and -0.03527 and 0.1342
- Log2 reporter intensity values ([5]; 3 at 4 μM): -0.01151 and 0.1537 and 0.06863
- Log2 reporter intensity values: USP24 ([6]; 3 at 1 μM): 1.062 and 1.01 and 1.397
- Log2 reporter intensity values: USP24 ([6]; 3 at 4 μM): 1.531 and 1.061 and 0.663
- Log2 reporter intensity values ([6]; 3_1 μM): 0.05897 and 0.007121 and 0.3935
- Log2 reporter intensity values ([6]; 3_4 μM): 0.5273 and 0.05764 and -0.3403
- Log2 reporter intensity values ([6]; 3 at 1 μM): 0.08723 and 0.01505 and 0.4822
- Log2 reporter intensity values ([6]; 3 at 4 μM): 0.6141 and 0.08543 and -0.5928
- Log2 reporter intensity values: OTULIN ([7]; 3 at 1 μM): 1.194 and 0.9889 and 0.9216
- Log2 reporter intensity values: OTULIN ([7]; 3 at 4 μM): 0.8963 and 0.9821 and 1.002
- Log2 reporter intensity values ([7]; 3_1 μM): 0.1933 and -0.01163 and -0.07888
- Log2 reporter intensity values ([7]; 3_4 μM): -0.1043 and -0.01848 and 0.001875
- Log2 reporter intensity values ([7]; 3 at 1 μM): 0.2556 and -0.01611 and -0.1177
- Log2 reporter intensity values ([7]; 3 at 4 μM): -0.158 and -0.02613 and 0.003463
Compound: N#CN1CCC[C@@H]1C(=O)N1CCc2c(-c3c[nH]c4ncccc34)cccc21 [Compound 3]
